Earlier results in patent US8679548B2, “Active bromine containing biocidal compositions and their preparation” (Albemarle Corporation, priority 1998, dated 2014).

For `BrBr` [Bromine (Br2), Bromine], the “Vapor Pressure (25° C.)” value is listed as 214 mm.
For `ClBr` [Bromine Chloride (BrCl), Bromine Chloride], the “Vapor Pressure (25° C.)” value is given as 1800 mm.
